Data taken from patent US20250319053A1, “INHIBITORS OF THE PEPTIDYL-PROLYL CIS/TRANS ISOMERASE (PIN1), COMBINATIONS AND USES THEREOF” (DANA-FARBER CANCER INSTITUTE, INC., priority 2021, published 2025).

How the values were obtained:
[1] = in humans; cited from earlier work
[2] = test system: human PDAC cells (PDAC1 and PDAC2); assay: Cell proliferation assay (CellTiter-Glo) in PDAC cells; format: cell-based; settings: PDAC cells, 72 hrs
Method: Cells were seeded at a density of 5000 cells (PDAC1 and PDAC2), or 3000 cells (CAF1 and CAF2) per well in 96-well flat-bottomed plates and incubated for 24 h in culture medium. […] Control cells received dimethyl sulfoxide (DMSO) at a concentration equal to that of drug-treated cells for 72 hours. The cell viability was determined by CellTiter-Glo® 2.0 Assay (Promega) following the manufacturer's instructions.

Pin1 = Pin1 (Homo sapiens, UniProt Q13526); assay: Immunoblotting for Pin1 and substrate oncoproteins in PDAC cells; format: cell-based; parameters: endogenous in cells; host or cells: primary human patient-derived PDAC cells (PDAC1, PDAC2); settings: 72 hrs
Chain of Pin1 (Q13526 whole entry): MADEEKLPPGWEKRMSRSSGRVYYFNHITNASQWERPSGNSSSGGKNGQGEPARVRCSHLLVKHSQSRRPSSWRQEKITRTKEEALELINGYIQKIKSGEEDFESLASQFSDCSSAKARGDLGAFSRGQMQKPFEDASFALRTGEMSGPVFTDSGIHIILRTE
Method: Cultured cells were lysed in RIPA buffer (50 mM Tris-HCl, pH 7.2, 150 mM NaCl, 1% NP40, 0.1% sodium dodecyl sulfate (SDS), 0.25% Na-deoxycholate) with freshly added phosphatase inhibitors containing 5 mM NaF and 0.2 mM sodium orthovanadate (NA3VO4), and proteinase inhibitors containing 2 μg/mL Aprotinin, 2 μg/mL Leupeptin, 2 μg/mL Pepstatin A, 1 mM DTT (dithiothreitol), 0.5 mM 4-(2-aminoethyl)-benzenesulfonyl fluoride (AEBSF), and 20 mM Chymotrypsin, and then mixed with the SDS sample buffer and loaded onto a gel after boiling for 10 minutes at 95° C. The proteins were resolved by polyacrylamide gel electrophoresis and transferred to PVDF membrane. The transferred membrane was washed three times with Tris-buffered saline containing 0.1% Tween 20 (TBST). After blocking with TBST containing 5% milk or 3% bovine serum albumin (BSA) for 1 h room temperature, the membrane was incubated with the appropriate primary antibody (diluted 1:500-1:10000) in 5% milk or 3% BSA-containing TBST at 4° C. overnight. After incubation with the primary antibody, the membrane was washed three times with TBST for a total of 30 min followed by incubation with horseradish peroxidase conjugated goat anti-rabbit or anti-mouse IgG (diluted 1:5000) for 1 h at room temperature. After three extensive washes with TBST for a total of 30 min, the immunoblots were visualized by enhanced chemi-luminescence. Immunoblotting results were quantified using ImageJ (NIH).

Row | Compound | half-life [1] [min] | cell growth (proliferation assay) [2] | Pin1 and its substrate oncoproteins (IB) (Pin1)
1 | CC1=C(/C=C/C(C)=C/C=C/C(C)=C/C(=O)O)C(C)(C)CCC1 [ATRA, all-trans retinoic acid] | ~45 | dose-dependently suppress cell growth | ablate Pin1
2 | arsenic trioxide [ATO, reference compound] | – | dose-dependently suppress cell growth | ablate Pin1
